Test results published in patent US11485974B2, “Method of fixing and expressing physiologically active substance” (STELIC INSTITUTE & CO., priority 2007, dated 2022).

Assays:
[1] = tested on: DSS-induced colitis model mice; experiment: Disease activity index (DAI: stool consistency, fecal occult blood) in DSS colitis model mice; assay type: in vivo, C57BL/6J mice; conditions: compared to the control group
Protocol: (§1) A colitis model mice was prepared by allowing C57BL/6J mice (female, six weeks old; CLEA Japan Inc.) to freely drink […] containing 3% dextran sulfate sodium (DSS; Wako Pure Chemical Industries Inc.) for five days. This DSS-induced colitis model has excellent reproducibility, and is thus used widely as a standard experimental model for inflammatory bowel diseases such as mouse ulcerative colitis and Crohn's disease (Sasaki N, J Inflamm. 2005 2: 13; as a review, Pucilowska J B et al. Am J Physiol Gastroenterol Liver Physiol. 279: G653-G659, 2000).
The same GalNAc4S-6ST siRNA (0.3 μg/head) as used in Example 5 was injected to the submucous tissue of mouse large intestine, while the mice were allowed to drink water containing 3% DSS. The control groups used were: a group injected with scramble siRNA (“BLOCK-iT Fluorescent Oligo (Invitrogen)” in Example 4) and an untreated group in which mice were allowed to drink DSS water only. The body weight and disease activity index (DAI) score (Kihara M, Gut. 2003 52: 713-9) were recorded for five days while the mice were allowed to drink water containing 3% DDS. […]
The colitis activity index (DAI) was analyzed by the same method described in Example 7.
The first day (day 0) of feeding with DSS water is defined as 1, and the stool consistency and fecal occult blood in each mouse were recorded. […]

[2] = Nucleic acid kinetics in the submucous tissue of mouse large intestine, siRNA concentration by ELISA; assay type: in vivo; conditions: mice, 0.3 μg/10 μl at three sites
Protocol: Next, in order to also confirm the retention of injected siRNA in the submucous tissue of the large intestine by biochemical methods, the concentration of siRNA in the large intestine was determined by using the ELISA method for direct quantitation of siRNA according to a published report (Rosie Z et al. Analytical Biochem. 304: 19-25, 2002). The nucleotide sequences of GalNac 4S-6ST siRNA used in this Example are shown below, but the sequences are not limited to the example shown herein.
GalNAc4S-6ST siRNA (0.3 μg/10 μl) was injected at three sites to the submucous tissue of large intestine in eight-week-old female C57BL/6.1 mice by the same method described in Example 3. The mice were sacrificed 0.5, 3, 6, or 24 hours after injection to prepare histological samples of the large intestine. The siRNA concentrations were determined by the ELISA methods.
1 μg/ml siRNA before injection was used as a positive control without any additional treatment.

[3] = tested on: DSS-induced colitis model mice; experiment: Histology (hematoxylin-eosin) of large intestine in DSS colitis model mice; assay type: in vivo, C57BL/6J mice; conditions: HE-stained sections of large intestine
Protocol: as §1
(§2) The same GalNAc4S-6ST siRNA (0.3 μg/head) as used in Example 5 was injected to the submucous tissue of mouse large intestine, while the mice were allowed to drink water containing 3% DSS. The control groups used were: a group injected with scramble siRNA (“BLOCK-iT Fluorescent Oligo (Invitrogen)” in Example 4) and an untreated group in which mice were allowed to drink DSS water only. The body weight and disease activity index (DAI) score (Kihara M, Gut. 2003 52: 713-9) were recorded for five days while the mice were allowed to drink water containing 3% DDS. Then, the mice were sacrificed on the fifth day.
Next, tissue sections were prepared from collected large intestines and stained with hematoxylin-eosin. The resulting histological images were analyzed (FIG. 10).

[4] = tested on: DSS-induced colitis model mice; experiment: Length of the large intestine (colonic contraction) in DSS colitis model mice; assay type: in vivo, C57BL/6J mice; conditions: day five, p<0.05, t test
Protocol: as §1, §2
Next, the length of the large intestine was measured after sacrificing mice on day five. […] The length of the large intestine is a crucial indicator that reflects the intestinal fibrosis.

[5] = tested on: GalNAc4S-6ST gene expression; experiment: Gene knockdown by siRNA administered into the submucous tissue of large intestine in DSS colitis model mice, quantitative PCR; assay type: in vivo, mouse; conditions: 0.3 μg/head into submucous tissue of large intestine, day 5
Protocol: as §1
The same GalNAc4S-6ST siRNA (0.3 μg/head) as used in Example 5 was injected to the submucous tissue of mouse large intestine, while the mice were allowed to drink water containing 3% DSS. […] The body weight and disease activity index (DAI) score (Kihara M, Gut. 2003 52: 713-9) were recorded for five days while the mice were allowed to drink water containing 3% DDS. […]
1 ml of RNA iso (Takara Bio) was added to 50 mg each of excised organs (large intestine and kidney). […] The RNA concentrations of extracted samples in UV plates (Corning Costar) were determined using a plate reader (POWER Wave XS; BIO-TEK).
Next, reverse transcription reaction (cDNA synthesis) is conducted by the following procedure. […] For quantitative PCR, SYBR Premix Kit (TAKARA) and Real-time PCR thermal cycler DICE (TAKARA) were used. […]

[6] = target: T1, ribonuclease (RNase A) (Bos taurus, UniProt P61823); experiment: Stability test for GalNAc4S-6ST siRNA at 37° C., agarose gel electrophoresis; assay type: in vitro ADME
T1 construct: purchased SIGMA
T1 sequence (P61823 27-150): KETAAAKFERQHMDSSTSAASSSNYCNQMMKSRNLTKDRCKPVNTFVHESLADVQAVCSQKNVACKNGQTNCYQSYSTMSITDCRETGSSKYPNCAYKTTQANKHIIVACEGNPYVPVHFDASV
Protocol: In this Example, GalNAc4S-6ST siRNA, the same substance used in Example 5, was assessed for its stability. First, test solutions were prepared by adding 1 μg of GalNAc4S-6ST siRNA to 200 μl of sterile phosphate buffer or 0.1% atelocollagen and stirring the mixtures at 4° C. for 20 minutes. 0.1% atelocollagen was prepared by combining 1% atelocollagen (Koken) with ten volumes of sterile phosphate buffer and stirring the mixture at 4° C. for 16 hours. Then, 40 μg of a ribonuclease (RNase A; SIGMA) was added to the prepared test solutions of GalNAc4S-6ST siRNA, and the mixtures were incubated to react at 37° C. The reaction time was 5, 15, 30, 45, or 60 minutes. 500 μl of RNA iso (Takara Bio) was added to the test solutions after reaction. The mixtures were incubated on ice for five minutes, and centrifuged at 14,000 rpm for 15 minutes. The resulting supernatants were collected, and 500 μl of isopropanol and 1 μl of glycogen (Invitrogen) were added thereto. The mixtures were incubated for 15 minutes, and centrifuged at 14,000 rpm for 15 minutes. The supernatants were discarded, and the pellets were saved. 1 ml of 75% ethanol was added to the pellets, and the mixtures were centrifuged at 14,000 rpm for 15 minutes. After this step was repeated twice, the pellets were dried and dissolved in 25 μl of injection solvent (Otsuka Pharmaceutical). 10 μl each of the solutions were combined with 2 μl of Loading Dye (Invitrogen). 3.5% agarose gel was prepared using UltraPure Agarose (Invitrogen), and the samples were electrophoresed in a Mupid-2 plus (ADVANCE) at 100 V for 20 minutes. After electrophoresis, the gel was shaken for 20 minutes in a stain solution prepared by 10,000 times diluting Ethidium Bromide (Invitrogen) with 1×LoTE (composition: 3 mM Tris-HCl (pH 7.5) (Invitrogen), 0.2 mM EDTA (pH 7.5) (Sigma Aldrich Japan)). The gel was photographed with Fluourchem (Innotech) and analyzed.

[7] = Retention of iopamidol injected into the submucous tissue of rat large intestine, X-ray photography and CT scanning; assay type: in vivo, Wistar rats; conditions: normal rats, 20 μl injected into submucous tissue of the left colon, after one hour
Protocol: Next, the retention of physiologically active substances in the submucous tissue of normal rats was analyzed by diagnostic imaging using X-ray and CT, which are routinely used clinically. Twelve-week-old male Wistar rats were anesthetized with Nembutal, and then an ultrathin endoscope for humans was inserted into the large intestines and 20 μl of iopamidol, a contrast medium, was endoscopically injected alone into the submucous tissue of the left colon using a local injection needle.
X-ray photography and CT scanning was carried out after one hour.

[8] = presence of ribonuclease (RNase A), phosphate buffer

Compound | DAI score (stool consistency and fecal occult blood) [1] | siRNA concentration in the large intestine ([2]; 0.5 hour after injection) | siRNA concentration in the large intestine ([2]; 24 hours after injection) | siRNA concentration in the large intestine ([2]; three hours after injection) | Epithelial disruption, infiltration of inflammatory cells into lamina propria and submucosa, and thickening of muscular layer [3] | Colonic contraction (length of the large intestine) [4] | Expression of GalNAc4S-6ST in the kidney [5] | Expression of GalNAc4S-6ST in the large intestine [5] | Stability (gel band) ([6]; absence of ribonuclease, sterile phosphate buffer, after 60 minutes) | Time after which the band disappeared [6, 8] [min] | Time point at which siRNA degradation was observed [6, 8] [min] | Gel band ([6]; siRNA embedded in 0.1% atelocollagen, ribonuclease (RNase A), after 30 minutes) | Retention at the injection site, CT images [7] | Retention at the injection site, X-ray images [7]
GalNAc4S-6ST siRNA: siRNA of SEQ ID NOs: 1 and 2 against GalNAc4S-6ST (Gene Bank accession number NM_015892), Hokkaido System Science (chain 1 GGAGCAGAGCAAGAUGAAUACAAUCAG; chain 2 GAUUGUAUUCAUCUUGCUCUGCUCCAU; listed as RNA, further chemistry not given here) | lower | retained at a very high concentration | continually remained retained | decreased by half | markedly suppressed | significantly suppressed | remained unchanged | significantly suppressed the increased expression | relatively stable | 30 | 15 | faint but detectable | – | –
C[C@H](O)C(=O)Nc1c(I)c(C(=O)NC(CO)CO)c(I)c(C(=O)NC(CO)CO)c1I [iopamidol, N,N′-Bis[2-hydroxy-1-(hydroxymethyl)ethyl]-5-[(2S)-2-hydroxypropanoylamino]-2,4,6-triiodoisophthalamide] | – | – | – | – | – | – | – | – | – | – | – | – | retained specifically at the injection sites and did not spread to other slices | retained in the submucous tissue of the colon without intraperitoneal leakage and transfer to other sections
